Measured values taken from PubChem BioAssay (NCI).
Where “and” joins values, the source holds several entries; their conditions need not be identical. Equal entries are not always repeated.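 Step 1: Grow cells in 96-well plates. Step 2: Expose to compound for 48 hours at 5 concentrations. Step 3: Interpolate endpoints linearly; if unreached, use highest concentration. GI50: concentration for 50% inhibition of growth. TGI marks complete inhibition of growth.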

How the values were obtained:
Experiment in all cases: growth of human tumour cells (NCI), 48 h
[1] = tested on: KM12 colon
[2] = tested on: CAKI-1 renal
[3] = tested on: A549 NSCLC
[4] = tested on: HCT-15 colon
[5] = tested on: RXF 393 renal
[6] = tested on: OVCAR-3 ovarian
[7] = tested on: NCI-H460 lung
[8] = tested on: HCT-116 colon
[9] = tested on: SNB-75 CNS
[10] = tested on: NCI-H23 lung

| SMILES | TGI [1] | TGI [2] | TGI [3] | TGI [4] [µM] | TGI [5] [µM] | TGI [6] | TGI [7] [µM] | TGI [8] [µM] | TGI [9] | TGI [10] | GI50 [1] [µM] | GI50 [2] [µM] | GI50 [3] [µM] | GI50 [4] [µM] | GI50 [5] [µM] | GI50 [6] [µM] | GI50 [7] [µM] | GI50 [8] [µM] | GI50 [9] [µM] | GI50 [10] |
| --- | --- | --- | --- | --- | --- | --- | --- | --- | --- | --- | --- | --- | --- | --- | --- | --- | --- | --- | --- | --- |
| O=C1CSC(c2cc3cc(Br)ccc3nc2Cl)N1c1ccc(Cl)cc1 (stereo unspecified) | 47.6 µM | > 100 µM | > 100 µM | 88.8 | 60.9 | 41.3 µM | 42.1 | 77 | > 100 µM | > 100 µM | – | – | – | – | – | – | – | – | – | – |
| O=[N+]([O-])c1ccc(N/N=C\c2cc(Br)ccc2O)nc1 | 17.5 µM | 2.35 µM | 29.8 µM | > 100 | 9.95 | 2.3 µM | 2.72 | 2.44 | 3.85 µM | 10.9 µM | 1.23 | 0.459 | 2.84 | 0.437 | 2.17 | 0.525 | 0.636 | 0.451 | 1.32 | 1.23 µM |
| CC(C)(CCCCC(C)(C)NC1=NCCO1)NC1=NCCO1 | > 10 µM | > 10 µM | > 10 µM | > 10 | > 10 | > 10 µM | > 10 | > 10 | > 10 µM | > 10 µM | – | – | – | – | – | – | – | – | – | – |
| COc1ccc(/C=C2\C[C@H]3[C@@H]4CC=C5C[C@@H](O)CC[C@]5(C)[C@H]4CC[C@]3(C)\C2=N\O)cc1 | > 100 µM | 19.3 µM | > 100 µM | > 100 | > 100 | 29.7 µM | > 100 | 29.3 | – | > 100 µM | – | – | – | – | – | – | – | – | – | – |
| COC(=O)C1=C(O)C(C(=O)OC)[C@@]2(O)[C@@H](C(=O)OC)[C@H](C)C[C@@H]1[C@@H]2C(=O)OC (stereo partly specified) | 58.1 µM | – | – | 92.6 | 58.9 | 40.2 µM | 44.3 | > 100 | 78.1 µM | > 100 µM | – | – | – | – | – | – | – | – | – | – |
| NCCc1ccc(S(=O)(=O)O)cc1[N+](=O)[O-] | > 100 µM | > 100 µM | > 100 µM | > 100 | > 100 | > 100 µM | > 100 | > 100 | > 100 µM | > 100 µM | – | – | – | – | – | – | – | – | – | – |
| COc1cc2c(cc1OCCCOc1cc3c(cc1OC)C(=O)N1CCC[C@H]1C(=O)N3)N=C[C@@H]1CCCN1C2=O | 67 µM | 88.4 µM | 57.4 µM | > 100 | 31 | 54 µM | 70.4 | > 100 | 36 µM | 57.4 µM | – | – | – | – | – | – | – | – | – | – |
| C/C=C(/CCC1NCCc2c1[nH]c1ccccc21)[Si](C)(C)C (stereo unspecified) | > 100 µM and 12.1 µM | > 100 µM and 18.3 µM | > 100 µM and 29.7 µM | 18.5 | – | > 100 µM and 13.9 µM | – | – | > 100 µM and 19.9 µM | > 100 µM and 25.5 µM | – | – | – | – | – | – | – | – | – | 87.1 µM and 11.1 µM |
| COC(=O)C(C)NP(=O)(OCc1cccc(Cn2cnc3c(N)ncnc32)c1)Oc1ccccc1 (stereo unspecified) | > 100 µM | > 100 µM | > 100 µM | > 100 | > 100 | > 100 µM | > 100 | > 100 | > 100 µM | > 100 µM | 68.2 | > 100 | > 100 | > 100 | 27.8 | 43 | > 100 | 47 | > 100 | 66 µM |
| O=c1c(-c2ccccc2)c(SCCCN2CCCCC2)n(-c2ccccc2)c(=S)n1-c1ccccc1 | 41.6 µM | 38.7 µM | – | 38.7 | 27.7 | 34.3 µM | 31.5 | – | 29.5 µM | 42.9 µM | – | – | – | – | – | – | – | – | – | – |
| NC(Cc1cc(I)c(Oc2ccc(O)c(I)c2)c(I)c1)C(=O)O (stereo unspecified) | > 100 µM | > 100 µM | > 100 µM | > 100 | > 100 | > 100 µM | – | > 100 | > 100 µM | > 100 µM | – | – | – | – | – | – | – | – | – | – |
| Fc1ccc2c(c1)SC1=Nc3sc4cc(F)ccc4[n+]3CN12 | – | 39.3 µM | 58.3 µM | > 100 | 86.8 | 36 µM | > 100 | > 100 | 36.8 µM | 47.3 µM | – | – | – | – | – | – | – | – | – | – |
